Measurements: patent US12421254B2, “KRAS modulators and uses thereof” (Quanta Therapeutics, Inc., priority 2023, dated 2025)
pIC50: −log10 of the molar value. Where two headings read alike, the source gives them in different places.

Key:
KRAS G12V/RAF1 = molecular target: T1, KRAS G12V/RAF1 (Homo sapiens, UniProt P01116, G12V); experiment: Protein-protein interaction (PPI) HTRF assay KRAS G12V/RAF1; type: binding; conditions: Table 3
T1 construct: KRAS (1-169) proteins were expressed in BL21 (DE3)-CodonPlus E. coli; His6-MBP (N, cleaved yes)
T1 sequence (P01116 with tags, fused parts or gaps isoform P01116-2 G12V): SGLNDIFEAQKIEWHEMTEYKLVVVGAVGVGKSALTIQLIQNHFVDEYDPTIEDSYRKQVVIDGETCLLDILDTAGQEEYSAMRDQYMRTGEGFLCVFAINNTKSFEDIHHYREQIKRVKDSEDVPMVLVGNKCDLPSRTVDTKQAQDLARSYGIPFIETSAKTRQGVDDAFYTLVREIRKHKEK
Experimental: (§1) When RAS proteins are in the active GTP-bound conformation, they bind the effector protein RAF1 at the N-terminus Ras-binding domain (RBD, residues 52-131) (Tran, et al., 2021). Homogenous time resolved fluorescence (HTRF) was used to monitor the interaction between wt or mutant KRAS and RAF1 or wt NRAS and RAF1. Compounds were assayed in the presence of KRAS G12D/V and RAF1 versus wt KRAS to assess activity against mutant and w.t. KRAS. Similarly, compounds were then assayed in the presence of w.t. NRAS and RAF1 to assess RAS isoform selectivity. In all assay formats, His-tagged RAF1 protein was incubated with the HTRF donor, anti-6His Tb Cryptate gold (Cisbio 61DB10RDF), and biotinylated RAS proteins were incubated with the HTRF acceptor, streptavidin-d2 (CisBio 610SADLA). The intensity of the fluorescence signal emitted is proportional to binding between the two proteins. The donor solution was prepared by mixing 16 nM His-tagged RAF1 in protein dilution buffer with 1:100 anti-6His Tb cryptate in PPI-Terbium detection buffer. 16 nM biotinylated RAS protein was diluted into protein dilution buffer (50 mM Tris-HCl pH 7.5, 150 mM NaCl, 0.1 mM MgCl2, 1 mM TCEP, 0.005% Tween20) and mixed with 1:2000 Streptavidin-d2 diluted in PPI-Terbium detection buffer (CisBio 61DB10RDF). 50× compound in DMSO was mixed with 16 nM KRAS-acceptor solution and incubated for 30 minutes at room temperature. After compound pre-incubation with KRAS, the RAF1 donor solution was added to the KRAS-acceptor solution and incubated for 1 hour at room temperature. The fluorescence signal emitted was monitored at 665 nm and 615 nm using an Envision multimode plate reader. The HTRF ratio (665/615) was calculated and normalized to 0% inhibition in the absence of compound and 100% inhibition in the presence of untagged RAF1 protein. PPI KRAS G12D/RAF1, KRAS G12V/RAF1, w.t. KRAS/RAF1 and NRAS/RAF1 IC50 (uM) values of selected compounds are depicted in Table 3 and Table 4 with compounds having a value <0.1 uM as ++++; ≥0.1 uM to 1 uM as +++; ≥1 uM to 10 uM as ++; ≥10 uM to 100 uM as +; and ≥100 uM as NA.

[1] = molecular target: GST-tagged KRAS-G12D (2-169) (Homo sapiens, UniProt P01116, G12D); experiment: Nucleotide exchange assay (NEA), SOS-mediated, HTRF, KRAS G12D; type: biochemical; conditions: IC50 extracted at 30 min, 20 nM SOScat; for IC50: Table 2, read-out: NEA-G12D (uM) IC50; for pIC50: Table 4, read-out: NEA G12D IC50
GST-tagged KRAS-G12D (2-169), sequence (P01116 2-169 isoform P01116-2 G12D): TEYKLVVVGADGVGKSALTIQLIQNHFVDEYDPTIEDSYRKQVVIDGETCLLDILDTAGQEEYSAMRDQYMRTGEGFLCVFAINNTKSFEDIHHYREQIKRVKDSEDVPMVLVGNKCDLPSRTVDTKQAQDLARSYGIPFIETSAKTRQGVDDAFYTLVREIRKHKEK
How it was run: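 Compound preincubated 1 h at RT with 0.25 nM GST-KRAS-G12D (2-169) and anti-GST Tb donor, then 20 nM SOS1cat (564-1049) and 150 nM GTP-DY-647P1 added; pH 7.3 HEPES buffer with MgCl2 and DTT. HTRF monitored at RT; % inhibition versus DMSO and no-SOS blank, 4-parameter IC50 taken at 30 min.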

[2] = molecular target: GST-tagged KRAS-G12V (2-169) (Homo sapiens, UniProt P01116, G12V); experiment: Nucleotide exchange assay (NEA), SOS-mediated, HTRF, KRAS G12V; type: biochemical; conditions: Table 4; IC50 extracted at 90 min; 80 nM SOS
GST-tagged KRAS-G12V (2-169), sequence (P01116 2-169 isoform P01116-2 G12V): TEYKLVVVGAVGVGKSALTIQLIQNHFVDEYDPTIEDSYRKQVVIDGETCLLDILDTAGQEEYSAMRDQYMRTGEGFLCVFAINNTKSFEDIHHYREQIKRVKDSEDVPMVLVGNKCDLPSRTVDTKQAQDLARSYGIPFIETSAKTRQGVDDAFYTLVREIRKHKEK
How it was run: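 GST-KRAS-G12V (2-169), 0.25 nM, pre-incubated 1 h at RT with compound, then SOS1cat (564-1049) 80 nM and GTP-DY-647P1 150 nM added in HEPES pH 7.3 buffer with MgCl2 and DTT. HTRF via anti-GST Tb cryptate read over 90 min; IC50 from 4-parameter fit at 90 min, blanked to no-SOS reactions.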

phospho-ERK in AGS cells = experiment: pERK In Cell Western (ICW) assay (Method B), AGS; type: cell-based; conditions: Homo sapiens, Table 2, 3 hours
Experimental: pERK ICW is a high throughput screening assay to evaluate the cellular potency of mutant KRAS small molecule inhibitors. KRAS mutant cell lines AGS, GP2D (KRAS-G12D) as well as SW620 (KRAS-G12V) were purchased from ATCC and maintained respectively in RPMI/DMEM/RPMI medium supplemented with 10% fetal bovine serum.
Cells grown in exponential phase were trypsinized, resuspended in fresh media, and viable cells were counted using a cell counter with Trypan Blue (BioRad TC20). Cells were seeded into 384-well plate (Greiner 781091) at density of 5,000 cells/well for AGS and 10,000 cells/well for GP2D/SW620 and allowed to grow overnight in a 37° C. CO2 incubator. The next day, compounds were dispensed into wells with a ½ log, 9-point serial dilution using a Tecan D300e dispenser and incubated for 3 hours in a 37° C. CO2 incubator. Cells were then fixed with paraformaldehyde (Electron Microscopy Sciences, 15710, 4% final concentration) for 30 min, permeabilized with wash buffer (1×PBS+0.1% Triton X-100) for 30 min and blocked with Odyssey blocking buffer (Li—COR 927-70001) for 1 hour, all at room temperature (RT). Phospho-ERK antibody (CST 4370L) was diluted 1:500 in Odyssey T20 (PBS) antibody diluent (Li—COR 927-75001) and incubated with cells overnight at 4° C. The next day, plates were washed 5× with wash buffer, incubated with IRDye 800 CW, Goat anti-Rabbit secondary antibody (Li—COR 926-32211, 1:800) and DRAQ5 (CST 4084L, 1:5,000) diluted in Odyssey T20 (PBS) antibody diluent for 1 hour, washed 5×, and imaged on an Odyssey CLx imaging system.
For data analysis, signal intensities from 800 (phosphor-ERK) and 700 (DRAQ5) channels were extracted, and phospho-ERK signals were normalized to DRAQ5 signals for each well and percent of blank control values were computed. Data were then imported into Graphpad Prism to compute half-maximal inhibitory concentrations (IC50) using a 4-parameter variable slope model. Z-factor for each plate was computed from signals derived from wells treated with either DMSO or 5 μM of control compound. AGS pERK ICW (Method B) IC50 (uM) values of selected compounds are depicted in Table 2 with compounds having a value ≥0.001 uM to 0.01 uM as ++++; ≥0.01 uM to 0.1 uM as +++; ≥0.1 uM to 1 uM as ++; ≥1 uM to 10 uM as + and ≥10 uM as NA.

KRAS G12D/RAF1 = molecular target: T2, KRAS G12D/RAF1 (Homo sapiens, UniProt P01116, G12D); experiment: Protein-protein interaction (PPI) HTRF assay KRAS G12D/RAF1; type: binding; conditions: Table 2
T2 construct: KRAS (1-169) proteins were expressed in BL21 (DE3)-CodonPlus E. coli; His6-MBP (N, cleaved yes)
T2 sequence (P01116 with tags, fused parts or gaps isoform P01116-2 G12D): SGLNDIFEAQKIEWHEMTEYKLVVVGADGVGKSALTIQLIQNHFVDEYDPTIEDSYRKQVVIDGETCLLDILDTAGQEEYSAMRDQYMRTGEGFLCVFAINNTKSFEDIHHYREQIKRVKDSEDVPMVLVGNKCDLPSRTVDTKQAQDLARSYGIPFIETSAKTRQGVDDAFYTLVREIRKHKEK
Experimental: as §1

w.t. KRAS/RAF1 = molecular target: T3, w.t. KRAS/RAF1 (Homo sapiens, UniProt P01116); experiment: Protein-protein interaction (PPI) HTRF assay w.t. KRAS/RAF1; type: binding; conditions: Table 3; wt KRAS/RAF1
T3 construct: KRAS (1-169) proteins were expressed in BL21 (DE3)-CodonPlus E. coli; His6-MBP (N, cleaved yes)
T3 sequence (P01116 with tags, fused parts or gaps isoform P01116-2): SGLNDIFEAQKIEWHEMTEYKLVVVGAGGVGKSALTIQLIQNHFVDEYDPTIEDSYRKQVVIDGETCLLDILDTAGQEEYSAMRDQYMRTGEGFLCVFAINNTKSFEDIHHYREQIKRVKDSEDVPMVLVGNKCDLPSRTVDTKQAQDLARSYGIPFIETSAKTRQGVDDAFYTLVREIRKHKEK
Experimental: as §1

[3] = test system: phospho-ERK in GP2D (KRAS-G12D) cells; experiment: pERK In Cell Western (ICW) assay (Method B), GP2D; type: cell-based; conditions: GP2d, 3 h, Table 4
How it was run: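 SW620 (KRAS-G12V), GP2D (KRAS-G12D) and AGS cells, seeded overnight, were exposed to compounds (½-log, 9-point) for 3 h at 37°C, then fixed and stained for phospho-ERK. Infrared imaging; pERK normalized to DRAQ5 DNA stain, expressed as percent of blank control, IC50 by 4-parameter fit.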

Which results are given for CC1(CO)CCCN(c2nc(OC[C@@]34CCCN3C[C@H](F)C4)nc(N3CC4(CCc5sc(N)c(C#N)c54)C3)n2)C1 (stereo partly drawn) [Compound 18, 2-amino-1′-[4-[[(2R)-2-fluoro-1,2,3,5,6,7-hexahydropyrrolizin-8-yl]methoxy]-6-[3-(hydroxymethyl)-3-methyl-1-piperidyl]-1,3,5-triazin-2-yl]spiro[5,6-dihydrocyclopenta[b]thiophene-4,3′-azetidine]-3-carbonitrile]?
IC50 (KRAS G12V/RAF1): 1 to 10 µM; IC50 [1]: 0.01 to 0.1 µM; pIC50 [1]: 7.00 to 8.00; pIC50 [2]: 7.00 to 8.00; IC50 (phospho-ERK in AGS cells): 1 to 10 µM; IC50 (KRAS G12D/RAF1): 1 to 10 µM; IC50 (w.t. KRAS/RAF1): 1 to 10 µM; pIC50 [3]: 4.70 to 6.00

How did the IC50 (KRAS G12V/RAF1) turn out when CN(CC1(C#N)CC1)c1nc(OC[C@@]23CCCN2C[C@H](F)C3)nc(N2CC3(CCc4sc(N)c(C#N)c43)C2)n1 [Compound 15, 2-amino-1′-[4-[(1-cyanocyclopropyl)methyl-methyl-amino]-6-[[(2R,8S)-2-fluoro-1,2,3,5,6,7-hexahydropyrrolizin-8-yl]methoxy]-1,3,5-triazin-2-yl]spiro[5,6-dihydrocyclopenta[b]thiophene-4,3′-azetidine]-3-carbonitrile] was run?
Its IC50 is 1 to 10 µM.

What about the IC50 [1] of the same molecule?
Its IC50 is 0.1 to 1 µM.

What about the pIC50 [1] of the same molecule?
Its pIC50 is 6.00 to 7.00.

What about the pIC50 [2] of the same molecule?
The pIC50 was 7.00 to 8.00.

And the IC50 (KRAS G12D/RAF1)?
The IC50 was 1 to 10 µM.

What about the IC50 (w.t. KRAS/RAF1) of the same molecule?
The IC50 was 1 to 10 µM.

Which IC50 (KRAS G12V/RAF1) does the source give for CC1(C#N)CCCN(c2nc(OC[C@@]34CCCN3C[C@H](F)C4)nc(N3CC4(CCc5sc(N)c(C#N)c54)C3)n2)C1 (stereo partly drawn) [Compound 19, 2-amino-1′-[4-(3-cyano-3-methyl-1-piperidyl)-6-[[(2R,8S)-2-fluoro-1,2,3,5,6,7-hexahydropyrrolizin-8-yl]methoxy]-1,3,5-triazin-2-yl]spiro[5,6-dihydrocyclopenta[b]thiophene-4,3′-azetidine]-3-carbonitrile] here?
Its IC50 is 1 to 10 µM.

What about the IC50 [1] of the same molecule?
Its IC50 is 0.01 to 0.1 µM.

And the pIC50 [1]?
Its pIC50 is 7.00 to 8.00.

What about the pIC50 [2] of the same molecule?
Its pIC50 is 7.00 to 8.00.

And the IC50 (phospho-ERK in AGS cells)?
Its IC50 is 0.1 to 1 µM.

What about the IC50 (KRAS G12D/RAF1) of the same molecule?
The IC50 was 1 to 10 µM.

What about the IC50 (w.t. KRAS/RAF1) of the same molecule?
Its IC50 is 1 to 10 µM.

And the pIC50 [3]?
The pIC50 was 6.00 to 7.00.

With C[C@]1(O)CN(c2nc(OC[C@@]34CCCN3C[C@H](F)C4)nc(N3CC4(CCc5sc(N)c(C#N)c54)C3)n2)CC[C@H]1O [Compound 21, 2-amino-1′-[4-[(3S,4R)-3,4-dihydroxy-3-methyl-1-piperidyl]-6-[[(2R,8S)-2-fluoro-1,2,3,5,6,7-hexahydropyrrolizin-8-yl]methoxy]-1,3,5-triazin-2-yl]spiro[5,6-dihydrocyclopenta[b]thiophene-4,3′-azetidine]-3-carbonitrile] as the molecule, how does the IC50 (KRAS G12V/RAF1) read?
The IC50 was 1 to 10 µM.

What about the IC50 [1] of the same molecule?
The IC50 was 0.01 to 0.1 µM.

And the pIC50 [1]?
Its pIC50 is 7.00 to 8.00.

And the pIC50 [2]?
The pIC50 was 7.00 to 8.00.

And the IC50 (phospho-ERK in AGS cells)?
The IC50 was 0.1 to 1 µM.

And the IC50 (KRAS G12D/RAF1)?
Its IC50 is 0.1 to 1 µM.

What about the IC50 (w.t. KRAS/RAF1) of the same molecule?
The IC50 was 0.1 to 1 µM.

What about the pIC50 [3] of the same molecule?
The pIC50 was 6.00 to 7.00.

For N#Cc1c(N)sc2c1C1(CC2)CN(c2nc(OCC3(C#N)CC3)nc(OC[C@@]34CCCN3C[C@H](F)C4)n2)C1 [Compound 16, 2-amino-1′-[4-[(1-cyanocyclopropyl)methoxy]-6-[[(2R,8S)-2-fluoro-1,2,3,5,6,7-hexahydropyrrolizin-8-yl]methoxy]-1,3,5-triazin-2-yl]spiro[5,6-dihydrocyclopenta[b]thiophene-4,3′-azetidine]-3-carbonitrile], which IC50 (KRAS G12V/RAF1) is on record?
Its IC50 is 1 to 10 µM.

And the IC50 [1]?
The IC50 was 0.01 to 0.1 µM.

What about the pIC50 [1] of the same molecule?
Its pIC50 is 7.00 to 8.00.

What about the pIC50 [2] of the same molecule?
The pIC50 was 7.00 to 8.00.

What about the IC50 (phospho-ERK in AGS cells) of the same molecule?
The IC50 was 1 to 10 µM.

And the IC50 (KRAS G12D/RAF1)?
Its IC50 is 1 to 10 µM.

What about the IC50 (w.t. KRAS/RAF1) of the same molecule?
The IC50 was 10 to 100 µM.

What about the pIC50 [3] of the same molecule?
Its pIC50 is 4.70 to 6.00.

How did the IC50 (KRAS G12V/RAF1) turn out when N#Cc1c(N)sc2c1C1(CC2)CN(c2nc(OC[C@@]34CCCN3C[C@H](F)C4)nc(N3CCCC(C#N)CC3)n2)C1 (stereo partly drawn) [Compound 8, 2-amino-1′-[4-(4-cyanoazepan-1-yl)-6-[[(2R,8S)-2-fluoro-1,2,3,5,6,7-hexahydropyrrolizin-8-yl]methoxy]-1,3,5-triazin-2-yl]spiro[5,6-dihydrocyclopenta[b]thiophene-4,3′-azetidine]-3-carbonitrile] was run?
The IC50 was 1 to 10 µM.

What about the IC50 [1] of the same molecule?
The IC50 was 0.01 to 0.1 µM.

And the IC50 (KRAS G12D/RAF1)?
Its IC50 is 1 to 10 µM.

And the IC50 (w.t. KRAS/RAF1)?
Its IC50 is 1 to 10 µM.
